Measurements reported in publication PMC7704793 (Bioorganic & medicinal chemistry letters, 2020).

Columns and labels:
CCD-18 Co cells = experiment: MTT cytotoxicity assay in normal human colon cells; type: cell-based; conditions: day 1, CCD-18 Co cells
MRSA ATCC 43300 = experiment: Inhibition of MRSA biofilm formation, crystal violet reporter assay; type: cell-based, Staphylococcus aureus; conditions: SAR discussion

Structure (SMILES): Nc1nc(-c2cccc(Br)c2)cc(-c2nc3ccccc3c(=O)[nH]2)n1 [Compound 5k]
- cellular toxicity (MTT) (CCD-18 Co cells; 12.5 μM (lowest concentration used)): significant toxicity

Structure (SMILES): COc1ccc(-c2cc(-c3nc4ccccc4c(=O)[nH]3)nc(N)n2)cc1OC [Compound 5e]
- MRSA biofilm inhibition activity compared to the parent 5a (in words) (MRSA ATCC 43300): reduced activity

Structure (SMILES): COc1cc(-c2cc(-c3nc4ccccc4c(=O)[nH]3)nc(N)n2)cc(OC)c1OC [Compound 5i]
- MRSA biofilm inhibition activity compared to the parent 5a (in words) (MRSA ATCC 43300): considerably reduced activity

Structure (SMILES): CSc1ccc(-c2cc(-c3nc4ccccc4c(=O)[nH]3)nc(N)n2)cc1 [Compound 5j]
- cellular toxicity (MTT) (CCD-18 Co cells; 50 μM, versus DMSO controls): more cytotoxic

Structure (SMILES): Nc1nc(-c2cccc(OCc3ccccc3)c2)cc(-c2nc3ccccc3c(=O)[nH]2)n1 [Compound 5r]
- MRSA biofilm inhibition activity compared to the parent 5a (in words) (MRSA ATCC 43300): reduced activity

Structure (SMILES): COc1cc(OC)c(-c2cc(-c3nc4ccccc4c(=O)[nH]3)nc(N)n2)c(OC)c1 [Compound 5h]
- cellular toxicity (MTT) (CCD-18 Co cells; 50 μM, versus DMSO controls): minimal

Structure (SMILES): Cc1ccc(-c2cc(-c3nc4ccccc4c(=O)[nH]3)nc(N)n2)cc1 [Compound 5b]
- MRSA biofilm inhibition activity compared to the parent 5a (in words) (MRSA ATCC 43300): reduced activity
